Measurements from patent US20230271969A1, “NITROGEN-CONTAINING FUSED RING DERIVATIVE INHIBITOR, PREPARATION METHOD THEREFOR AND USE THEREOF” (Shanghai Hansoh Biomedical Co., Ltd., priority 2020, published 2023).
Like-named read-outs stand apart in the source and are kept apart here.

Columns and labels:
[1] = tested on: luteinizing hormone (LH) content in plasma; assay: Luteinizing hormone (LH) content in plasma of bilateral ovariectomy (OVX) rats; format: in vivo; conditions: oral 30 mg/kg, plasma LH 0-8 h
Description: Test Example 5. Effect of the Compounds of the Present Invention on Luteindzing Hormone (LH) Content in Plasma of Bilateral Ovariectomy (OVX) Rats
The objective of this test example was to determine the effect of the compounds on luteinizing hormone (LH) in plasma of bilateral ovarnectomy (OVX) rats.
10-Week-old female bilateral ovariectomy SD rats were purchased from Beijing Vital River Laboratory Animal Technology Co., Ltd. The animals were housed in a SPF grade animal facility with 5 SD rats per cage. The cages, bedding, feed and water were disinfected at high temperatures before use. All animals had free access to food and water.
Drug administration by groups: 10-Week-old female SD rats were subjected to bilateral ovariectomy and used in experiments after 3 weeks. Each SD rat was fasted overnight before the experiment, and then randomly divided into groups (3 rats per group) before the drug administration. Different test compounds were administered orally to each drug administration group at a dose of 30 mg/kg and a volume of 10 mL/kg.
Sample collection: 0.2-0.3 mL of whole blood of the SD rats in each group was collected at 0, 0.5, 1, 2, 4, 8 hours before and after the drug administration, and placed in EDTA-K2 tubes. The tubes were inverted and mixed well, and centrifuged at 4° C. at 5,000 rpm for 5 min. Then the plasma was separated and stored in an ultra-low temperature freezer (−80±10° C.).
Sample detection: All reagents, samples and ELISA plates were equilibrated at room temperature (20-25° C.) for at least 30 min. The sample was thawed, vortexed and centrifuged for use. The standard curve was prepared with Assay buffer C according to the concentration sequence of 10, 5, 2.5, 1.25, 0.625, 0.313 and 0. The sample was diluted by two folds with Sample dilution buffer G and left to stand at room temperature for 10 min. […] The OD values of each well was read at a wavelength of 450 nm with a microplate reader.
The standard curve was plotted by using Graphpad, and the concentration of the sample was calculated. […]

[2] = Pharmacokinetic assay in SD rats (plasma and brain tissue); format: in vivo; conditions: rat, po, male SD rats, p.o. 5 mg/kg; for AUC(0-t): read-out: Area under curve AUC0-t; for Tmax: read-out: Peak time tmax; for Cmax: read-out: Plasma concentration Cmax
Protocol: Test Example 4. Pharmacokinetic Assays in SD Rats
SD rats were used as test animals. The in vivo (plasma and brain tissue) pharmacokinetic behavior of the compounds of the present invention was investigated by oral administration of the compound in rats at a dose of 5 mg/kg.
Male SD rats (21 animals per group), purchased from Shanghai JieSiJie Laboratory Animal Co., Ltd., under the Animal Production License Number of SCXK (Shanghai) 2013-0006 No. 311620400001794.
The experimental drug was dissolved in 0.5% CMC-Na (1% Tween 80) by sonication to formulate a clear solution or a homogeneous suspension.
After an overnight fast, male SD rats (21 animals per group) were administered p.o. with the experimental drug at an administration dose of 5 mg/kg and the administration volume of 10 mL/kg.
Rats were sacrificed with CO2 at 0, 0.5, 1, 2, 4, 8 and 24 hours before and after the drug administration. 8 mL of blood was collected by cardiac puncture, placed in EDTA-K2 tubes, and centrifuged at 4° C. at 6,000 rpm for 6 min. Plasma was separated and stored at −80° C. The whole brain tissue was dissected and weighed, and then placed in a 2 mL centrifuge tube and stored at −80° C.
2.6 Sample Processing: • 1) 160 μL of acetonitrile was added to 40 μL of plasma sample for precipitation. After mixing, the sample was centrifuged at 3500×g for 5-20 minutes. • 2) 90 μL of acetonitrile containing internal standard (100 ng/mL) was added to 30 μL of plasma or brain homogenate sample for precipitation. After mixing, the sample was centrifuged at 13,000 rpm for 8 minutes. • 3) 70 μL of water was added to 70 μL of treated supernatant, and mixed by vortex for 10 minutes. Then 20 μL of the sample was analyzed by LC/MS/MS to determine the concentration of the compound to be tested. The LC/MS/MS instrument for analysis was AB Sciex API 4000 Qtrap.
2.7 Liquid Chromatography Analysis: • Liquid chromatography conditions: Shimadzu LC-20AD pump • Chromatographic column: Agilent ZORBAX XDB-C18 (50×2.1 mm, 3.5 μm) Mobile phase: Eluent A was 0.1% formic acid in water, and Eluent B was acetonitrile. • Flow rate: 0.4 mL/min • Elution time: 0-4.0 minutes, the eluate was as follows:
The major pharmacokinetic parameters were calculated by using WinNonlin 6.1, and the results of the pharmacokinetic experiments in rats were shown in Table 3 below: […]

| SMILES | ΣAUC(ΔLH/LH · h, Mean ± SD) [1] | AUC(0-t) ([2]; Brain) [ng·h/mL] | Tmax ([2]; Brain) [h] | Cmax ([2]; Brain) [ng/mL] | AUC(0-t) ([2]; Plasma) [ng·h/mL] | Tmax ([2]; Plasma) [h] | Cmax ([2]; Plasma) [ng/mL] | half-life ([2]; Plasma, read-out: Half life t1/2 (converted)) [h] | MRT ([2]; Plasma, read-out: Mean residence time MRT) [h] |
| --- | --- | --- | --- | --- | --- | --- | --- | --- | --- |
| C[C@@H]1c2nnc(-c3nc4cnc(Cl)cc4s3)n2CCN1C(=O)c1ccc(F)cc1 [Example 37, (R)-(3-(6-Chlorothiazolo[4,5-c]pyridin-2-yl)-8-methyl-5,6-dihydro-[1,2,4]triazolo[4,3-a]pyrazin-7(8H)-yl)(4-fluorophenyl)methanone] | −0.52 ± 2.24 ΔLH/LH · h | 4200 | 4 | 1640 | 77800 | 8 | 4000 | – | – |
| [2H]c1cc(C(=O)N2CCn3c(-c4nc(Cl)ns4)nnc3[C@H]2C)ccc1F [Example 56, (R)-(3-(3-Chloro-1,2,4-thiadiazol-5-yl)-8-methyl-5,6-dihydro-[1,2,4]triazolo[4,3-a]pyrazin-7(8H)-yl)(4-fluorophenyl-3-d)methanone] | – | 2710 | 1 | 798 | 6150 | 2 | 1170 | 3.1 | 5.1 |
